These results are taken from article PMC12714101, “CD160-Derived Peptide as a Bidirectional Inhibitor Toward Immune Checkpoints BTLA/HVEM and HVEM/LIGHT” (Journal of Medicinal Chemistry, 2025).

What is called inhibition is the drop in the measured response relative to a control, in per cent.

Series [1] addresses T1, BTLA/HVEM complex (Homo sapiens, UniProt Q92956).
T1 construct: purchased ACROBiosystems HVM-H52E9 (HVEM-His); BTA-H5255 (BTLA-Fc)
T1 sequence (Q92956 39-202 limits assumed): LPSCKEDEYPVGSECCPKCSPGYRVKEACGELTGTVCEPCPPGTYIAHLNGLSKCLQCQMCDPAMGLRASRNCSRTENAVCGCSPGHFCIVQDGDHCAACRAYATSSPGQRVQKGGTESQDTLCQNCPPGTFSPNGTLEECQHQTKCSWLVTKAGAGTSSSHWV
Briefly: ELISA inhibition of BTLA/HVEM complex formation. The series is classed as biochemical. The conditions noted are these: immobilized HVEM-His, BTLA-Fc 5 μg/mL, PBS-T, 37 °C, mean of three independent experiments; for inhibition at 16.67 µM: peptide 16.67 μM; for inhibition at 50 µM: peptide 50 μM; for inhibition at 150 µM: peptide 150 μM. As for the experimental part:
In the subsequent stage of the study, the potential of the obtained compounds to inhibit the interaction between BTLA and HVEM proteins was evaluated using ELISA, following the methodology described in our previous studies. , HVEM was immobilized on the plate and incubated with peptides at three different concentrations, followed by the addition of Fc-tagged BTLA. Detection was carried out using horseradish peroxidase (HRP) conjugated with anti-human IgG and 3,3′,5,5′-tetramethylbenzidine (TMB) as a substrate. Signal intensity was directly proportional to the amount of BTLA bound to HVEM and inversely proportional to the inhibitory activity of the tested peptides. As a control, BTLA and HVEM were incubated in the absence of peptides.
Recombinant human HVEM protein with a His tag was purchased from ACROBiosystems, Newark, DE, USA (no. HVM-H52E9). Recombinant human protein BTLA-Fc and LIGHT-Fc were also purchased from ACROBiosystems, Newark, DE, USA (no. BTA-H5255 and no. LIT-H5269).
ELISA was performed using transparent 96-well NUNC Maxisorp plates (Thermo Fisher Scientific, Waltham, MA, USA). In the first step, HVEM-His, dissolved in PBS at a concentration of 5 μg/mL (100 μL/well), was immobilized on the plate by overnight incubation at 4 °C. Wells were then blocked with 5% bovine serum albumin (BSA) in PBS containing 0.05% Tween 20 (PBS-T) (200 μL/well). Next, peptides dissolved in PBS-T at concentrations of 150, 50, and 16.67 μM were added to the wells (100 μL/well). Following this, BTLA-Fc in PBS-T at a concentration of 5 μg/mL (100 μL/well) was applied. In the next step, goat anti-human IgG antibody conjugated with the HRP (Bio-Rad Laboratories, Hercules, CA, USA) in PBS-T at a ratio of 1:30,000 (v/v) was added (100 μL/well). Colorimetric detection was performed by adding 100 μL of TMB substrate (Thermo Fisher Scientific, Waltham, MA, USA) to each well and incubating the plate in the dark. At each stage, plates were incubated at 37 °C with continuous shaking for 1 h (except TMB, which was incubated for 15 min). After each incubation, wells were washed five times with PBS-T. Absorbance was measured using an Infinite M200 Pro Reader (Tecan Group Ltd., Männedorf, Switzerland) at wavelengths of 650 nm (measurement wavelength) and 492 nm (reference wavelength). Inhibition assays for the HVEM/LIGHT complex were conducted using the same approach, except that LIGHT was used instead of BTLA. The BTLA/HVEM and HVEM/LIGHT complexes without peptides served as controls. Inhibition percentages were calculated based on the assumption that PBS-T has no effect on the formation of BTLA/HVEM or HVEM/LIGHT complexes. Each ELISA was conducted in at least three independent replicates. The data were analyzed using GraphPad Prism 8 software (San Diego, CA, USA).
On the technique in general: ELISA stands for enzyme-linked immunosorbent assay.

The subject of series [2] is Jurkat E6.1 cells. The conditions noted are these: 150 µM. As for the experimental part:
(§1) Before conducting cellular assays, the effects of the peptides on cell viability in Jurkat E6.1 and T cell stimulator (TCS) cell lines, as well as their stability in cell culture supernatant, were evaluated. Jurkat E6.1 cells are human T cell acute lymphoblastic leukemia cells, while TCS is a modified murine thymoma cell line (BW5147). The cellular platforms described below are based on these cells. […] The stability of the peptides in supernatant collected from cells after 24 h of incubation was also assessed.
(§2) Comparison of the binding affinity obtained from SpS and MM-GBSA
(§3) Table S3. Experimental and theoretical binding affinities for the BTLA/HVEM and HVEM/peptide complexes. Experimental Kd values obtained from SpS were used to calculate the corresponding ΔG, while theoretical ΔG values were obtained from MM-GBSA analysis. protein/protein ΔG ΔG obtained from or K [µmol] SD calculated SD MM-GBSA SD
(§4) The cytotoxicity of the peptides against two cell lines, Jurkat E6.1 and TCS, was examined. To estimate the number of viable cells, the CellTiter-Glo® luminescence-based assay

Series [3] relates to T cell stimulator (TCS) cell line (BW5147). The note with it: 150 µM. As for the experimental part:
as §1, §2, §3, §4

For series [4], the system named is BTLA/HVEM interaction. Briefly: Cellular reporter assay, HVEM reporter cells (JE6.1-NF-κB::eGFP) stimulated with TCS-BTLA. Type of series: cell-based, human. The note with it: 30 min preincubation, 24 h coculture, NF-κB::eGFP by flow cytometry, mean of four independent experiments in duplicate; for Inhibition - Cellular assay 16.67 µM: peptide 16.67 μM; for Inhibition - Cellular assay 50 µM: peptide 50 μM; for Inhibition - Cellular assay 150 µM: peptide 150 μM. As for the experimental part: In the next step of the study, the inhibitory properties of the designed peptides were evaluated using previously described cell-based assays. The experiment utilized reporter cells expressing HVEM (JE6.1-NF-κB::eGFP) and T cell stimulator cells expressing BTLA (TCS-BTLA). Activation of the reporter cells by TCS followed a two-signal model. The first is generated through the interaction between the T cell receptor–cluster of differentiation 3 (TCR–CD3) complex on the surface of the reporter cells and a membrane-bound antihuman CD3 single-chain antibody fragment (mAb aCD3) expressed on the TCS cells. The second signal is provided by the binding of HVEM and BTLA, which in this assay results in a strong costimulatory signal via HVEM. Activation of the reporter cells leads to the expression of nuclear factor kappa light chain enhancer of activated B cells (NF-κB), which correlates with the level of enhanced green fluorescent protein (eGFP), measured by flow cytometry. In the absence of peptides, NF-κB expression is normalized to 100%. Disruption of the BTLA/HVEM interaction by peptides results in a concentration-dependent decrease in NF-κB levels. In this study, HVEM-expressing reporter cells were stimulated with BTLA-expressing TCS cells in the presence or absence of tested peptides at three different concentrations.
Cellular studies were performed in the same procedure as we described previously for gD- and BTLA-derived peptides. , The peptides were dissolved in the medium, and their final concentrations in wells were 150, 50, and 16,7 μM. Briefly, reporter cells expressing HVEM (JE6.1-NF-κB::eGFP) (5 × 10^4 cells/well) were preincubated with peptides for 30 min in a 96-well flat-bottom plate. Subsequently, the second cell line expressing BTLA (TCS BTLA) or LIGHT (TCS LIGHT) (2 × 10^4 cells/well) was added and cocultured for 24 h at 37 °C in an atmosphere of 5% CO2. Next, an APC-conjugated mCD45.2 antibody to exclude TCS from the reporter cells was added. The expression of the reporter gene (eGFP) was measured via flow cytometry using a CytoFLEX flow cytometer (Beckman Coulter Inc., Brea, CA, USA), and the results were analyzed using FlowJo v10.10 (FlowJo LLC, Ashland, OR, USA). The data were analyzed using GraphPad Prism 8 software (San Diego, CA, USA).
For orientation: In a reporter assay the amount or activity of a reporter protein is the signal.

Where a SMILES comes first, the peptide text is derived from it.

On to `CC[C@@H]1NC(=O)[C@H](CC(C)C)NC(=O)[C@H](Cc2ccccc2)NC(=O)[C@H](C(C)C)NC(=O)[C@@H](NC(=O)[C@H](Cc2ccccc2)NC(C)=O)CSSC[C@@H](C(=O)N[C@@H](CC(C)C)C(N)=O)NC(=O)[C@H](CC(C)C)NC(=O)[C@H](CCC(N)=O)NC(=O)[C@H](CCCCN)NC(=O)[C@H](CC(C)C)NC(=O)[C@H](CO)NC(=O)[C@H]([C@@H](C)O)NC(=O)[C@H](CCC(=O)O)NC(=O)[C@@H]2CCCN2C(=O)[C@H](CO)NC(=O)[C@H](CC)NC(=O)[C@H](CC(=O)O)NC(=O)CNC(=O)[C@H](CO)NC(=O)[C@H](CCCNC(=N)N)NC(=O)[C@H](CC(=O)O)NC(=O)[C@H](CCCCN)NC1=O` [B2, CD160(56–79)^(V57C,C61X,C68X,R78C)] (HELM PEPTIDE1{[ac].F.C.V.F.L.[Abu].K.D.R.S.G.D.[Abu].S.P.E.T.S.L.K.Q.L.C.L.[am]}$PEPTIDE1,PEPTIDE1,3:R3-24:R3$$$V2.0), for which, in series [1], the inhibition at 16.67 µM is -3.89% and the inhibition at 50 µM was -2.56%. For the same compound, the “Cell viability, Jurkat E6.1” value in series [2] is recorded as 47%. The “Cell viability, TCS” value in series [3] came out at 9%.
For the compound `CC(=O)N[C@@H](Cc1ccccc1)C(=O)N[C@H](C(=O)N[C@H](C(=O)N[C@@H](Cc1ccccc1)C(=O)N[C@@H](CC(C)C)C(=O)N[C@H]1CSSC[C@@H](C(=O)N[C@@H](CO)C(=O)N2CCC[C@H]2C(=O)N[C@@H](CCC(=O)O)C(=O)N[C@H](C(=O)N[C@@H](CO)C(=O)N[C@@H](CC(C)C)C(=O)N[C@@H](CCCCN)C(=O)N[C@@H](CCC(N)=O)C(=O)N[C@@H](CC(C)C)C(=O)N[C@@H](CCCNC(=N)N)C(=O)N[C@@H](CC(C)C)C(N)=O)[C@@H](C)O)NC(=O)[C@H](CC(=O)O)NC(=O)CNC(=O)[C@H](CO)NC(=O)[C@H](CCCNC(=N)N)NC(=O)[C@H](CC(=O)O)NC(=O)[C@H](CCCCN)NC1=O)C(C)C)C(C)C` [B5, CD160(56–79)] (HELM PEPTIDE1{[ac].F.V.V.F.L.C.K.D.R.S.G.D.C.S.P.E.T.S.L.K.Q.L.R.L.[am]}$PEPTIDE1,PEPTIDE1,7:R3-14:R3$$$V2.0), in series [1], the inhibition at 16.67 µM was -7.56%, the inhibition at 50 µM was -7.13% and the inhibition at 150 µM was -4.6%. In series [4], the “Inhibition - Cellular assay 16.67 µM” value worked out at 12.02%, the “Inhibition - Cellular assay 50 µM” value came out at 12.02% and the “Inhibition - Cellular assay 150 µM” value is recorded as 2.50%. In addition, the “Cell viability, Jurkat E6.1” value in series [2] turned out to be 75%.
On to `CC(=O)N[C@@H](Cc1ccccc1)C(=O)N[C@@H](CC(C)C)C(=O)N[C@H]1CSSC[C@@H](C(=O)N[C@@H](CO)C(=O)N2CCC[C@H]2C(=O)N[C@@H](CCC(=O)O)C(=O)N[C@H](C(=O)N[C@@H](CO)C(=O)N[C@@H](CC(C)C)C(=O)N[C@@H](CCCCN)C(N)=O)[C@@H](C)O)NC(=O)[C@H](CC(=O)O)NC(=O)CNC(=O)[C@H](CO)NC(=O)[C@H](CCCNC(=N)N)NC(=O)[C@H](CC(=O)O)NC(=O)[C@H](CCCCN)NC1=O` [C3, CD160(59–75)] (HELM PEPTIDE1{[ac].F.L.C.K.D.R.S.G.D.C.S.P.E.T.S.L.K.[am]}$PEPTIDE1,PEPTIDE1,4:R3-11:R3$$$V2.0), for which, in series [1], the inhibition at 16.67 µM is 1.86%, the inhibition at 50 µM stood at 2.02% and the inhibition at 150 µM is 0.4%. Moreover, in series [4], the “Inhibition - Cellular assay 16.67 µM” value was 5.70%, the “Inhibition - Cellular assay 50 µM” value came out at 4.25% and the “Inhibition - Cellular assay 150 µM” value is 4.78%.
Take `CC[C@@H]1NC(=O)[C@H](CC)NC(=O)[C@@H](NC(=O)[C@H](Cc2ccc(O)cc2)NC(C)=O)CSSC[C@@H](C(=O)N[C@@H](Cc2ccccc2)C(N)=O)NC(=O)[C@H](Cc2c[nH]cn2)NC(=O)CNC(=O)[C@H](CCC(N)=O)NC(=O)[C@H](CC(C)C)NC(=O)[C@H](CCCNC(=N)N)NC(=O)[C@H]([C@@H](C)CC)NC(=O)CNC(=O)[C@H](CO)NC(=O)[C@H](CCCCN)NC(=O)[C@H](CCC(N)=O)NC(=O)[C@H](CO)NC(=O)[C@H](CCCNC(=N)N)NC(=O)[C@H](C)NC1=O` [A2, CD160(110–128)^(Q111C,C112X,C113X,F127C)] (HELM PEPTIDE1{[ac].Y.C.[Abu].[Abu].A.R.S.Q.K.S.G.I.R.L.Q.G.H.C.F.[am]}$PEPTIDE1,PEPTIDE1,3:R3-19:R3$$$V2.0): in series [1], the inhibition at 16.67 µM is 1.45%, the inhibition at 50 µM was 3% and the inhibition at 150 µM came to 2.26%.
